Patent US8304394B2, “Low side effect pharmaceutical composition containing isoniazid” (priority 2008, dated 2012)

What was measured:
[1] = target: human liver microsomal cytochrome P450 2E1 (CYP2E1) (Homo sapiens, UniProt P05181); test: Chlorzoxazone hydroxylation inhibition (6-OH-CZX by LC/MS/MS)
[2] = target: T1, CYP2E1 (Homo sapiens, UniProt P05181); test: in vitro; details: for inhibition at 40 min, 16.5 µM / inhibition at 40 min, 66 µM: pH 7.4, Inhibition of CYP 2E1 (%); for inhibition at 40 min, 16.5 µM: tested concentration 16.5 μM; for inhibition at 40 min, 66 µM: tested concentration 66 μM; for inhibition at 40 min, 33 µM: pH 7.4
[3] = target: T1, CYP2E1; test: Chlorzoxazone hydroxylation inhibition (6-OH-CZX by LC/MS/MS); details: human, microsomes, pH 7.4

T1 sequence (P05181 whole entry): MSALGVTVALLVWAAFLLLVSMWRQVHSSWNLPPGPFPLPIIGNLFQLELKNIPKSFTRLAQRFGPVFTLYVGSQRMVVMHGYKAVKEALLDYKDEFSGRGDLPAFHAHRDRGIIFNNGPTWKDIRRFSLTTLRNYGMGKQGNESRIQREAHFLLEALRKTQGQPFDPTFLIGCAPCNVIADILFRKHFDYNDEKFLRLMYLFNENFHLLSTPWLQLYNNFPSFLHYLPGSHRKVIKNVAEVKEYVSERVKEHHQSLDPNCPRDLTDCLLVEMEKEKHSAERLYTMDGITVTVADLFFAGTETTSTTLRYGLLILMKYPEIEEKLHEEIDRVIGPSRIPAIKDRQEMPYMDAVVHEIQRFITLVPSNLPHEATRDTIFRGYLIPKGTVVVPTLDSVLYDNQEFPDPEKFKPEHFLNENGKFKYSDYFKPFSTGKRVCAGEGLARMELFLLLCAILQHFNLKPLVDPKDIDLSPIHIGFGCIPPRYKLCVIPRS
Sequence of human liver microsomal cytochrome P450 2E1 (CYP2E1) (P05181 whole entry): as above

SMILES | Inhibition of CYP 2E1 (%) ([1]; tested concentration 16.5 μM) | Inhibition of CYP 2E1 (%) ([1]; tested concentration 33 μM) | Inhibition of CYP 2E1 (%) ([1]; tested concentration 66 μM) | inhibition at 40 min, 16.5 µM [2] [%] | inhibition at 40 min, 66 µM [2] [%] | inhibition at 30 min, 16.5 µM [3] [%] | inhibition at 30 min, 33 µM [3] [%] | inhibition at 30 min, 66 µM [3] [%] | inhibition at 40 min, 33 µM [2] [%]
C=C(C)C1CC=C(C)CC1 (single isomer, unassigned; (+)) [(+)-Limonene] | 13.77 ± 1.96 | 38.05 ± 1.95 | 63.64 ± 2.74 | – | – | – | – | – | –
Oc1cc(O)c2c(c1)O[C@@H](c1ccc(O)c(O)c1)[C@@H](O)C2 [(+)-Epicatechin] | 66.71 ± 1.79 | 52.32 ± 1.59 | – | – | – | – | – | – | –
O=C1c2c(O)cc(O)cc2O[C@H](c2ccc(O)c(O)c2)[C@H]1O [(+)-Taxifolin] | – | – | – | 22.6 ± 11.7 | 34.5 ± 3.47 | – | – | – | –
Oc1cc(O)c2c(c1)O[C@H](c1cc(O)c(O)c(O)c1)[C@H](O)C2 [(−)-Epigallocatechin] | 38.95 ± 1.92 | 36.40 ± 2.18 | 57.08 ± 1.85 | – | – | – | – | – | –
O=C(O[C@@H]1Cc2c(O)cc(O)cc2O[C@@H]1c1cc(O)c(O)c(O)c1)c1cc(O)c(O)c(O)c1 [(−)-Epigallocetechin-3-gallate] | 50.19 ± 1.89 | 60.53 ± 2.06 | 72.16 ± 1.02 | – | – | – | – | – | –
O=c1cc(-c2ccc(O)cc2)oc2cc(O)cc(O)c12 [Apigenin] | – | – | – | – | – | 28.9 ± 1.54 | 36.8 ± 1.98 | 47.5 ± 3.66 | –
O=c1cc(-c2ccccc2)oc2cc(O)c(O)c(O)c12 [Baicalein] | – | – | – | – | – | 35.3 ± 1.51 | 47.8 ± 3.4 | 50.1 ± 5.11 | –
O=C(O)[C@H]1O[C@@H](Oc2cc3oc(-c4ccccc4)cc(=O)c3c(O)c2O)[C@H](O)[C@@H](O)[C@@H]1O [Baicalin] | – | – | – | – | – | 22.5 ± 2.24 | 35.6 ± 3.09 | 49.3 ± 2.26 | –
O=c1c(-c2ccc(O)cc2)coc2cc(O)ccc12 [Daidzein] | – | – | – | – | – | 73.5 ± 1.74 | 76.3 ± 2.28 | 86.8 ± 1.04 | –
COc1ccc(-c2cc(=O)c3c(O)cc(O[C@@H]4O[C@H](CO[C@@H]5O[C@@H](C)[C@H](O)[C@@H](O)[C@H]5O)[C@@H](O)[C@H](O)[C@H]4O)cc3o2)cc1O [Diosmin] | – | – | – | – | – | 60 ± 1.96 | 43.1 ± 3.57 | 21.6 ± 1.19 | –
CCCCCCCCCCCC1=C(O)C(=O)C=C(O)C1=O [Embelin] | – | – | – | 5.95 ± 7.48 | 13.5 ± 11.6 | – | – | – | 12.3 ± 10.2
CCCCCCCCCCCCCC(=O)OCC [Ethyl Myristate] | – | – | – | – | – | 22.1 ± 0.78 | 41 ± 4.76 | 52 ± 2.38 | –
O=c1c(-c2ccc(O)cc2)coc2cc(O)cc(O)c12 [Genistein] | – | – | – | – | – | 43.9 ± 2.06 | 30.9 ± 1.62 | 36.9 ± 1.56 | –
COc1ccc([C@@H]2CC(=O)c3c(O)cc(O)cc3O2)cc1O [Hesperetin] | – | – | – | 32.1 ± 5.8 | 54.8 ± 1.37 | 25.7 ± 2.45 | 34.3 ± 2.03 | 44.6 ± 2.35 | 43.3 ± 0.82
COc1ccc([C@@H]2CC(=O)c3c(O)cc(O[C@@H]4O[C@H](CO[C@@H]5O[C@@H](C)[C@H](O)[C@@H](O)[C@H]5O)[C@@H](O)[C@H](O)[C@H]4O)cc3O2)cc1O [Hesperidin] | 45.32 ± 1.57 | 50.91 ± 2.81 | 58.57 ± 3.78 | – | – | – | – | – | –
O=c1c(O[C@@H]2O[C@H](CO)[C@H](O)[C@H](O)[C@H]2O)c(-c2ccc(O)c(O)c2)oc2cc(O)cc(O)c12 [Hyperoside] | – | – | – | – | – | -24.2 ± 1.19 | 35.6 ± 3.68 | 53.5 ± 1.2 | –
COc1cc(-c2oc3cc(O)cc(O)c3c(=O)c2O)ccc1O [Isorhamnetin] | – | – | – | – | – | 12.1 ± 1.06 | 18.7 ± 1.22 | 36.3 ± 1.59 | –
O=c1cc(-c2ccc(O)cc2)oc2cc(O)c([C@@H]3O[C@H](CO)[C@@H](O)[C@H](O)[C@H]3O)c(O)c12 [Isovitexin] | – | – | – | – | – | 59.8 ± 1.41 | 67.6 ± 3.24 | 81.8 ± 1.34 | –
O=c1c(O)c(-c2ccc(O)cc2)oc2cc(O)cc(O)c12 [Kaempferol] | – | – | – | 71.9 ± 1.14 | 70.6 ± 2.53 | 66.5 ± 1.71 | 74.74 ± 0.6 | 79.25 ± 0.27 | 70 ± 3.75

SMILES | Inhibition of CYP 2E1 (%) ([1]; tested concentration 16.5 μM) | Inhibition of CYP 2E1 (%) ([1]; tested concentration 33 μM) | Inhibition of CYP 2E1 (%) ([1]; tested concentration 66 μM) | inhibition at 40 min, 16.5 µM [2] [%] | inhibition at 40 min, 66 µM [2] [%] | inhibition at 30 min, 16.5 µM [3] [%] | inhibition at 30 min, 33 µM [3] [%] | inhibition at 30 min, 66 µM [3] [%] | inhibition at 40 min, 33 µM [2] [%]
O=c1cc(-c2ccc(O)c(O)c2)oc2cc(O)cc(O)c12 [Luteolin] | – | – | – | – | – | 39.1 ± 3.42 | 43.4 ± 4.74 | 53.2 ± 1.78 | –
O=c1c(O)c(-c2ccc(O)cc2O)oc2cc(O)cc(O)c12 [Morin] | – | – | – | – | – | 36.9 ± 1.56 | 52.1 ± 1.7 | 60.3 ± 1.56 | –
O=c1c(O)c(-c2cc(O)c(O)c(O)c2)oc2cc(O)cc(O)c12 [Myricetin] | – | – | – | – | – | 42.2 ± 2.55 | 59.2 ± 1.27 | 61.6 ± 0.88 | –
O=C1C[C@@H](c2ccc(O)cc2)Oc2cc(O)cc(O)c21 [Naringenin] | – | – | – | 25.1 ± 7.6 | 41.8 ± 3.51 | 19.5 ± 2.02 | 28.4 ± 2.21 | 45.2 ± 4.43 | 36.8 ± 3.97
O=C(CCc1ccc(O)cc1)c1c(O)cc(O)cc1O [Phloretin] | – | – | – | 42 ± 3.63 | 66.8 ± 4.79 | 29.6 ± 3.21 | 39.8 ± 3.28 | 50.9 ± 2.09 | 54.7 ± 2.84
O=C(CCc1ccc(O)cc1)c1c(O)cc(O)cc1O[C@@H]1O[C@H](CO)[C@@H](O)[C@H](O)[C@H]1O [Phloridzin] | – | – | – | 1.25 ± 7.9 | 1.42 ± 9.28 | – | – | – | 3.76 ± 3.58
O=C(O)c1ccc(O)c(O)c1 [Protocatechuic acid] | – | – | – | 25.7 ± 12.7 | 22.8 ± 4.07 | – | – | – | 19.9 ± 8.95
O=c1c(-c2ccc(O)cc2)coc2c([C@@H]3O[C@H](CO)[C@@H](O)[C@H](O)[C@H]3O)c(O)ccc12 [Puerarin] | – | – | – | 0.43 ± 2.31 | -12.9 ± 2.75 | – | – | – | -4.64 ± 3.47
O=c1c(O)c(-c2ccc(O)c(O)c2)oc2cc(O)cc(O)c12 [Quercetin] | – | – | – | – | – | 46.4 ± 4.68 | 53 ± 2.17 | 73.3 ± 1.57 | –
C[C@@H]1O[C@@H](Oc2c(-c3ccc(O)c(O)c3)oc3cc(O)cc(O)c3c2=O)[C@H](O)[C@H](O)[C@H]1O [Quercitrin] | – | – | – | – | – | 33.5 ± 4.29 | 53.8 ± 3.51 | 61 ± 5.88 | –
C[C@@H]1O[C@@H](OC[C@H]2O[C@@H](Oc3c(-c4ccc(O)c(O)c4)oc4cc(O)cc(O)c4c3=O)[C@H](O)[C@@H](O)[C@@H]2O)[C@H](O)[C@H](O)[C@H]1O [Rutin] | – | – | – | – | – | 30 ± 0.81 | 30.1 ± 1.62 | 43.5 ± 3.09 | –
COc1cc(C2Oc3cc([C@H]4Oc5cc(O)cc(O)c5C(=O)[C@@H]4O)ccc3OC2CO)ccc1O (stereo partly shown) [Silybin] | – | – | – | – | – | 59.5 ± 2.34 | 37.1 ± 1.15 | 39 ± 1.19 | –
COc1ccc(-c2oc3cc(O)cc(O)c3c(=O)c2O)cc1O [Tamarixetin] | – | – | – | – | – | 37.4 ± 1.96 | 47.8 ± 2.81 | 50.9 ± 3.12 | –
O=C/C=C/c1ccccc1 [Trans-Cinnamaldehyde] | – | – | – | – | – | 60.8 ± 3 | 89.6 ± 1.52 | 92.81 ± 0.53 | –
O=c1cc(-c2ccc(O)cc2)oc2c([C@@H]3O[C@H](CO)[C@@H](O)[C@H](O)[C@H]3O)c(O)cc(O)c12 [Vitexin] | – | – | – | – | – | 23.1 ± 1.19 | 30.6 ± 0.78 | 38.7 ± 1.62 | –
O=C(O)c1cc(O)c(O)c(O)c1 [gallic acid] | – | – | – | 35.6 ± 10 | 48.2 ± 4.2 | 10.5 ± 1.12 | 18.8 ± 2.03 | 28 ± 1.56 | 42.7 ± 7.36
O=C(O)/C=C/c1ccccc1 [trans-Cinnamic acid] | – | – | – | 5.71 ± 10.5 | 7.1 ± 6.95 | – | – | – | 4.66 ± 6.5
C=CC(=C)CCC=C(C)C [β-Myrcene] | – | – | – | – | – | 53.4 ± 4.93 | 75.5 ± 2.14 | 76.5 ± 2.18 | –
